Laboratory results: ChEMBL document CHEMBL5370521, “New miconazole-based azoles derived from eugenol show activity against Candida spp. and Cryptococcus gattii by inhibiting the fungal ergosterol biosynthesis” (Eur J Med Chem, 2023)
Values after ≈ are worked out from the molar mass of the structure shown. Active and inactive are the calls of the source. The calls are words filed in the database; no cut-off is given here.

Legend:
[Candida] auris [1] = Antifungal activity against Candida auris COLO 01 A assessed as inhibition of fungal growth incubated for 24 to 48 hrs by CLSI protocol based broth microdilution method; format: functional; details: Candidozyma auris, time 24-48 hrs
[2] = Antifungal activity against Cryptococcus gattii ATCC 24065 assessed as inhibition of fungal growth incubated for 24 to 48 hrs by CLSI protocol based broth microdilution method; format: functional, Cryptococcus gattii VGI; details: time 24-48 hrs
Nakaseomyces glabratus [3] = test: Antifungal activity against Candida glabrata ATCC 2001 assessed as inhibition of fungal growth incubated for 24 to 48 hrs by CLSI protocol based broth microdilution method; format: functional; details: time 24-48 hrs
Pichia kudriavzevii [4] = test: Antifungal activity against Candida krusei ATCC 20298 assessed as inhibition of fungal growth incubated for 24 to 48 hrs by CLSI protocol based broth microdilution method; format: functional; details: time 24-48 hrs
Candida tropicalis [5] = test: Antifungal activity against Candida tropicalis ATCC 750 assessed as inhibition of fungal growth incubated for 24 to 48 hrs by CLSI protocol based broth microdilution method; format: functional; details: time 24-48 hrs
Candida parapsilosis [6] = test: Antifungal activity against Candida parapsilosis ATCC 22019 assessed as inhibition of fungal growth incubated for 24 to 48 hrs by CLSI protocol based broth microdilution method; format: functional; details: Lodderomyces parapsilosis, time 24-48 hrs
Candida albicans [7] = test: Antifungal activity against Candida albicans SC5314 assessed as inhibition of fungal growth incubated for 24 to 48 hrs by CLSI protocol based broth microdilution method; format: functional; details: time 24-48 hrs
Candida albicans [8] = test: Antifungal activity against Candida albicans SC5314 assessed as inhibition of fungal growth at highest concentration incubated for 24 to 48 hrs by CLSI protocol based broth microdilution method; format: functional, organism-based; details: time 24-48 hrs
Candida parapsilosis [9] = test: Antifungal activity against Candida parapsilosis ATCC 22019 assessed as inhibition of fungal growth at highest concentration incubated for 24 to 48 hrs by CLSI protocol based broth microdilution method; format: functional, organism-based; details: time 24-48 hrs
Pichia kudriavzevii [10] = test: Antifungal activity against Candida krusei ATCC 20298 assessed as inhibition of fungal growth at highest concentration incubated for 24 to 48 hrs by CLSI protocol based broth microdilution method; format: functional, organism-based; details: time 24-48 hrs
Candida tropicalis [11] = test: Antifungal activity against Candida tropicalis ATCC 750 assessed as inhibition of fungal growth at highest concentration incubated for 24 to 48 hrs by CLSI protocol based broth microdilution method; format: functional, organism-based; details: time 24-48 hrs
[12] = Cytotoxicity against H9c2 cells assessed as inhibition of cell proliferation incubated for 72 hrs by resazurin dye based microplate reader analysis; format: toxicity; details: rat
Cryptococcus gattii VGI = test: Antifungal activity against Cryptococcus gattii ATCC 24065 assessed as inhibition of fungal growth at highest concentration incubated for 24 to 48 hrs by CLSI protocol based broth microdilution method; format: functional; details: time 24-48 hrs
Nakaseomyces glabratus [13] = test: Antifungal activity against Candida glabrata ATCC 2001 assessed as inhibition of fungal growth at highest concentration incubated for 24 to 48 hrs by CLSI protocol based broth microdilution method; format: functional, organism-based; details: time 24-48 hrs
[Candida] auris [14] = Antifungal activity against Candida auris COLO 01 A assessed as inhibition of fungal growth at highest concentration incubated for 24 to 48 hrs by CLSI protocol based broth microdilution method; format: functional, organism-based; details: Candidozyma auris, time 24-48 hrs
[15] = target: T1, Lanosterol 14-alpha demethylase (Candida albicans (strain SC5314 / ATCC MYA-2876) (Yeast), UniProt P10613); test: Inhibition of CYP51 in Candida albicans SC5314 assessed as reduction in ergosterol level at 3 fold MIC incubated overnight by spectrophotometric analysis
T1 sequence (P10613 whole entry): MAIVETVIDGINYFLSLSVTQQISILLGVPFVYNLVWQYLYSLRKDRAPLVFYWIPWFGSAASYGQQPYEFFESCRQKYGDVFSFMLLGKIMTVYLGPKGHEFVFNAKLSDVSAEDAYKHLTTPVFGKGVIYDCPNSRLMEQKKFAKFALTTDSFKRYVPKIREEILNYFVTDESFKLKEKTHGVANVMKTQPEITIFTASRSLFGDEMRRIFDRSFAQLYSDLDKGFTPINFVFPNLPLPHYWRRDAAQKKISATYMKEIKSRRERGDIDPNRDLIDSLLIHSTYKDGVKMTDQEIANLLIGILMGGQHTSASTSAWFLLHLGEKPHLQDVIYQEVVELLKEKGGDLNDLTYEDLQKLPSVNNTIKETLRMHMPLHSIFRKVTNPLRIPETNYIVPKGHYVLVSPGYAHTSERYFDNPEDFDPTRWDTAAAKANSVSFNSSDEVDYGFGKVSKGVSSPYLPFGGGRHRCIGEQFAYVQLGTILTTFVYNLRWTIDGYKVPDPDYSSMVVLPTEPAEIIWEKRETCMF

[16] = target: T1, Lanosterol 14-alpha demethylase; test: Inhibition of CYP51 in Candida albicans SC5314 assessed as reduction in ergosterol level at 2 fold MIC incubated overnight by spectrophotometric analysis
[17] = Selectivity index, ratio of CC50 for cytotoxicity against […] H9c2 cells to MIC for antifungal activity against Cryptococcus gattii ATCC 24065; format: toxicity, cell-based; details: rat, read-out: Selectivity Index
[18] = Selectivity index, ratio of CC50 for cytotoxicity against […] H9c2 cells to MIC for antifungal activity against Candida albicans SC5314; format: toxicity, cell-based; details: read-out: Selectivity Index
[19] = Selectivity index, ratio of CC50 for cytotoxicity against […] H9c2 cells to MIC for antifungal activity against Candida tropicalis ATCC 750; format: toxicity, cell-based; details: read-out: Selectivity Index
[20] = Selectivity index, ratio of CC50 for cytotoxicity against […] H9c2 cells to MIC for antifungal activity against Candida parapsilosis ATCC 22019; format: toxicity, cell-based; details: read-out: Selectivity Index
[21] = Selectivity index, ratio of CC50 for cytotoxicity against […] H9c2 cells to MIC for antifungal activity against Candida glabrata ATCC 2001; format: toxicity, cell-based; details: rat, read-out: Selectivity Index
Candida albicans [22] = test: Potency index, ratio of miconazole MIC to test compound MIC for antifungal activity against Candida albicans SC5314 assessed as inhibition of fungal growth incubated for 24 to 48 hrs by CLSI protocol based broth microdilution method; format: functional; details: time 24-48 hrs

Work on `Clc1ccc(COC(Cn2ccnc2)c2ccc(Cl)cc2Cl)c(Cl)c1` (stereo not drawn) [MICONAZOLE] yielded an MIC ([Candida] auris [1]) of 74.9 µM (≈ 31.2 µg/mL), an MIC [2] of 9.4 µM (≈ 3.91 µg/mL) and an MIC (Nakaseomyces glabratus [3]) of 1.2 µM (≈ 0.499 µg/mL). For the same compound, the MIC (Pichia kudriavzevii [4]) was 18.7 µM (≈ 7.78 µg/mL), the MIC (Candida tropicalis [5]) was 31.2 µM (≈ 13 µg/mL) and the MIC (Candida parapsilosis [6]) was 7.8 µM (≈ 3.25 µg/mL). The MIC (Candida albicans [7]) was 150 µM (≈ 62.5 µg/mL).
With `C=CCc1ccc(OCC(O)Cn2cncn2)c(OC)c1` (stereo not drawn) the Activity (Candida albicans [8]) was “inactive”, the Activity (Candida parapsilosis [9]) was “inactive” and the Activity (Pichia kudriavzevii [10]) was “inactive”. The Activity (Candida tropicalis [11]) was “inactive”, the CC50 at 72 h [12] was 541 µM and the Activity (Cryptococcus gattii VGI) was “inactive”. For the same compound, the Activity (Nakaseomyces glabratus [13]) was “inactive” and the Activity ([Candida] auris [14]) was “inactive”.
In the case of `CCCc1ccc(OCC(O)Cn2cncn2)c(OC)c1` (stereo not drawn), the Activity (Candida albicans [8]) is reported as “inactive”, the Activity (Candida parapsilosis [9]) is reported as “inactive” and the Activity (Pichia kudriavzevii [10]) is reported as “inactive”. For the same compound, the Activity (Candida tropicalis [11]) was “inactive”, the CC50 at 72 h [12] was 553 µM and the Activity (Cryptococcus gattii VGI) was “inactive”. For the same compound, the Activity (Nakaseomyces glabratus [13]) was “inactive” and the Activity ([Candida] auris [14]) was “inactive”.
For `OC(Cn1cncn1)(Cn1cncn1)c1ccc(F)cc1F` [FLUCONAZOLE], the MIC ([Candida] auris [1]) was 209 µM (≈ 64 µg/mL), the MIC [2] was 13.1 µM (≈ 4.01 µg/mL) and the MIC (Nakaseomyces glabratus [3]) was 13.1 µM (≈ 4.01 µg/mL). The MIC (Pichia kudriavzevii [4]) was 104 µM (≈ 32 µg/mL), the “inhibition (INH)” value [15] was “Active” and the “inhibition (INH)” value [16] was “Active”. For the same compound, the MIC (Candida tropicalis [5]) was 0.8 µM (≈ 0.245 µg/mL), the MIC (Candida parapsilosis [6]) was 3.3 µM (≈ 1.01 µg/mL) and the MIC (Candida albicans [7]) was 1.6 µM (≈ 0.49 µg/mL).
With `CCCc1ccc(OCC(Cn2cncn2)OC(=O)c2ccc(Cl)cc2)c(OC)c1` (stereo not drawn) the Activity (Candida albicans [8]) was “inactive”, the Activity (Candida parapsilosis [9]) was “inactive” and the Activity (Pichia kudriavzevii [10]) was “inactive”. The Activity (Candida tropicalis [11]) was “inactive”, the CC50 at 72 h [12] was 35.4 µM and the Activity (Cryptococcus gattii VGI) was “inactive”. The Activity (Nakaseomyces glabratus [13]) was “inactive” and the Activity ([Candida] auris [14]) was “inactive”.
Work on `C=CCc1ccc(OCC(Cn2ccnc2)OC(=O)c2ccc(Cl)cc2)c(OC)c1` (stereo not drawn) yielded a selectivity ratio [17] of 1.8, a selectivity ratio [18] of 28.2 and an MIC [2] of 73.2 µM (≈ 31.2 µg/mL). The Activity (Pichia kudriavzevii [10]) was “inactive”, the selectivity ratio [19] was 1.8 and the MIC (Nakaseomyces glabratus [3]) was 36.5 µM (≈ 15.6 µg/mL). The selectivity ratio [20] was 1.8, the selectivity ratio [21] was 3.5 and the CC50 at 72 h [12] was 129 µM. The Ratio (Candida albicans [22]) was 32, the “inhibition (INH)” value [15] was “Active” and the MIC (Candida tropicalis [5]) was 73.2 µM (≈ 31.2 µg/mL). For the same compound, the MIC (Candida parapsilosis [6]) was 73.2 µM (≈ 31.2 µg/mL), the Activity ([Candida] auris [14]) was “inactive” and the MIC (Candida albicans [7]) was 4.6 µM (≈ 1.96 µg/mL).
In the case of `C=CCc1ccc(OCC(O)Cn2ccnc2)c(OC)c1` (stereo not drawn), the Activity (Candida albicans [8]) is reported as “inactive”, the Activity (Candida parapsilosis [9]) is reported as “inactive” and the Activity (Pichia kudriavzevii [10]) is reported as “inactive”. For the same compound, the Activity (Candida tropicalis [11]) was “inactive”, the CC50 at 72 h [12] was 644 µM and the Activity (Cryptococcus gattii VGI) was “inactive”. The Activity (Nakaseomyces glabratus [13]) was “inactive” and the Activity ([Candida] auris [14]) was “inactive”.
